Reference: patent US20250066388A1, “1,3,4,7-TETRAHYDRO-2H-PYRROLO[3',2':5,6]PYRIDO[2,3-B][1,4]OXAZEPINE BCL-2 INHIBITORS” (AbbVie Inc., priority 2022, published 2025)

Legend:
[1] = target: Bcl-xL protein (Homo sapiens (Human), UniProt Q07817); experiment: TR-FRET binding assay, Bcl-xL; details: F-Bak peptide probe
Procedure: (§1) Determination of the utility of compounds having Formula (I) or Formula (II) as binders to and inhibitors of anti-apoptotic Bcl-2 proteins was performed using the Time Resolved-Fluorescence Resonance Energy Transfer (TR-FRET) Assay. Tb-anti-GST antibody was purchased from Invitrogen (Catalog No. PV4216).
A human Bcl-xL encoding sequence was cloned into a pET41A vector. The protein was expressed with E. coli. BL21(DE3)-T1R strain in OETB autoinduction medium at 30° C. for 25 hours. The cell pellets were resuspended in lysis buffer (50 mM Tris, 140 mM NaCl, 1 mM DTT, 10% Glycerol, 0.1% Triton X-100, pH 7.5) and lysed with Microfluidizer. The Bcl-xL protein in clarified cell-lysate was purified with GST affinity chromatography. The eluate was dialyzed in the storage buffer (1×PBS, 10% Glycerol, 2 mM DTT, 1 mM Sodium Azide, pH 7.4) and stored at −80° C.
(§2) […] of a protein (Bcl-2 or Bcl-xL)/probe/antibody mixture pre-equilibrated for one hour in assay buffer was added to each well at final concentrations listed in Table 6 below.
(§3) The samples were then mixed on a shaker for 1 minute and equilibrated for an additional 3 hours at room temperature. For each assay plate, a probe/antibody and protein/antibody/probe mixture were included as a negative and a positive control, respectively. Fluorescence was measured on the Envision (Perkin Elmer) using a 340/35 nm excitation filter and 520/525 (F-Bak) and 495/510 nm (Tb-labeled anti-GST antibody) emission filters. Inhibition constants (Ki) were determined using Wang's equation (Wang FEBS Lett. 1995, 360, 111-114). The TR-FRET assay can be performed in the presence of varying concentrations of human serum (HS) to determine apparent half maximal inhibitory concentration (IC50) after HS protein binding.
(§4) Inhibition constants were determined using Wang's equation (Wang FEBS Lett. 1995, 360:111-4).

[2] = target: Bcl-2 protein (Homo sapiens (Human), UniProt P10415); experiment: TR-FRET binding assay, Bcl-2; details: F-Bak peptide probe, GST-Bcl-2
Chain of Bcl-2 protein (P10415 other isoform, or with tags, fused parts or gaps): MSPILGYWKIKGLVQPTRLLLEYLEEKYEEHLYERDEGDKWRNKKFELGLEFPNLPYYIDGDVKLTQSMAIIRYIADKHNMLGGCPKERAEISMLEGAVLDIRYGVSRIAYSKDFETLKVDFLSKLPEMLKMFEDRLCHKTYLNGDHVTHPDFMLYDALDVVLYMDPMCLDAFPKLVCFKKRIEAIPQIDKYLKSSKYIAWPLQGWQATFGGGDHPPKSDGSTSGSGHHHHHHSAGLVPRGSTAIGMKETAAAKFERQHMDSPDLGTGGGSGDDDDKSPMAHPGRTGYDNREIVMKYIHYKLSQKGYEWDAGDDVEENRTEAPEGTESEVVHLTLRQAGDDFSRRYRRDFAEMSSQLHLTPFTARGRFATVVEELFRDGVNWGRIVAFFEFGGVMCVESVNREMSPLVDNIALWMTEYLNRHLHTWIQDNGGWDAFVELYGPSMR
Procedure: as §1
A Bcl-2 human encoding sequence was cloned into a pET41A vector (Novagen). The protein was expressed with E. coli. BL21(DE3)-T1R strain in OETB autoinduction medium at 30° C. for 25 hours. The cell pellets were resuspended in lysis buffer (50 mM Tris, 140 mM NaCl, 1 mM DTT, 10% Glycerol, 2 mM MgCl2, pH 7.3) and lysed with Microfluidizer. The Bcl-2 protein in clarified cell-lysate was purified with affinity chromatography (GST and Ni-NTA). The eluate was loaded onto a Superdex 75 column and further purified with a Q Sepharose column. The protein was purified on a phenyl hydrophobic interaction column and dialyzed in the storage buffer (50 mM Tris, 50 mM NaCl, 2 mM DTT, pH 7.5) and stored at −80° C.
as §2, §3, §4

Chain of Bcl-xL protein (Q07817 other isoform, or with tags, fused parts or gaps): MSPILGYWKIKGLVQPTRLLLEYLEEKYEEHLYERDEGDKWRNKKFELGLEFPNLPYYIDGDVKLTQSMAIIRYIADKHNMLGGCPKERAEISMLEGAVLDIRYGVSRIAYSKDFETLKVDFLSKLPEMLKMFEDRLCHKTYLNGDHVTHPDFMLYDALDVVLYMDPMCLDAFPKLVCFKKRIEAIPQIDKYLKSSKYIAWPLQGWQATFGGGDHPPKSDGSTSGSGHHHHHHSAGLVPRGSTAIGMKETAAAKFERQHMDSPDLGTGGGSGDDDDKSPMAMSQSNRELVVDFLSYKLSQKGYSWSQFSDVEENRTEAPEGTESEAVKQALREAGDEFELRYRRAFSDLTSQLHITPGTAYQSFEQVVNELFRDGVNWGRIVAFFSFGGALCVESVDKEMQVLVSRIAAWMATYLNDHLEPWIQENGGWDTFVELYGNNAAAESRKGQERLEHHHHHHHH

SMILES	Ki [1] [nM]	Ki [2] [nM]
CC1(C)CC(c2ccc(Cl)cc2)=C2CN3CCN(c4ccc(C(=O)NS(=O)(=O)c5ccc(NC[C@H]6CC[C@](C)(O)CC6)c([N+](=O)[O-])c5)c(N5CCCOc6nc7[nH]ccc7cc65)c4)C[C@H]3COCCCO[C@@H]2C1 [Example 32, 4-((4aS,10aR)-14-(4-chlorophenyl)-12,12-dimethyl-1,2,4a,5,8,9,10a,11,13,15-decahydro-7H,12H-benzo[f]pyrazino[2,1-c][1,8]dioxa[4]azacycloundecin-3(4H)-yl)-2-(3,4-dihydro-2H-pyrrolo[3′,2′:5,6]pyrido[2,3-b][1,4]oxazepin-1(7H)-yl)-N-((4-((((1r,4r)-4-hydroxy-4-methylcyclohexyl)methyl)amino)-3-nitrophenyl)sulfonyl)benzamide]	15.8	0.397
CC1(C)CC(c2ccc(Cl)cc2)=C2CN3CCN(c4ccc(C(=O)NS(=O)(=O)c5cnc(OC[C@]6(F)CC[C@@H](N7CCOCC7)CC6)c(Cl)c5)c(N5CCCOc6nc7[nH]ccc7cc65)c4)C[C@H]3COCCCO[C@@H]2C1 [Example 10, N-((5-chloro-6-(((1s,4s)-1-fluoro-4-morpholinocyclohexyl)methoxy)pyridin-3-yl)sulfonyl)-4-((4aS,10aR)-14-(4-chlorophenyl)-12,12-dimethyl-1,2,4a,5,8,9,10a,11,13,15-decahydro-7H,12H-benzo[f]pyrazino[2,1-c][1,8]dioxa[4]azacycloundecin-3(4H)-yl)-2-(3,4-dihydro-2H-pyrrolo[3′,2′:5,6]pyrido[2,3-b][1,4]oxazepin-1(7H)-yl)benzamide]	5.91	0.66
CO[C@H]1CC[C@H](CNc2ccc(S(=O)(=O)NC(=O)c3ccc(N4CCN5CC6=C(c7ccc(Cl)cc7)CC(C)(C)C[C@H]6OCCCOC[C@@H]5C4)cc3N3CCCOc4nc5[nH]ccc5cc43)cc2[N+](=O)[O-])CC1 [Example 5, 4-((4aS,10aR)-14-(4-chlorophenyl)-12,12-dimethyl-1,2,4a,5,8,9,10a,11,13,15-decahydro-7H,12H-benzo[f]pyrazino[2,1-c][1,8]dioxa[4]azacycloundecin-3(4H)-yl)-2-(3,4-dihydro-2H-pyrrolo[3′,2′:5,6]pyrido[2,3-b][1,4]oxazepin-1(7H)-yl)-N-((4-((((1r,4r)-4-methoxycyclohexyl)methyl)amino)-3-nitrophenyl)sulfonyl)benzamide]	20	0.149
CC1(C)CC(c2ccc(Cl)cc2)=C2CN3CCN(c4ccc(C(=O)NS(=O)(=O)c5ccc(OCC6(F)CCN(C7COC7)CC6)c(Cl)c5)c(N5CCCOc6nc7[nH]ccc7cc65)c4)C[C@H]3COCCCO[C@@H]2C1 [Example 9, N-(3-chloro-4-{[4-fluoro-1-(oxetan-3-yl)piperidin-4-yl]methoxy}benzene-1-sulfonyl)-4-[(4aS,10aR)-14-(4-chlorophenyl)-12,12-dimethyl-1,2,4a,5,8,9,11,12,13,15-decahydro-7H,10aH-pyrazino[2,1-g][1,5,8]benzodioxazacycloundecin-3(4H)-yl]-2-(3,4-dihydro-2H-pyrrolo[3′,2′:5,6]pyrido[2,3-b][1,4]oxazepin-1(7H)-yl)benzamide]	20.6	0.267
CC1(C)CC(c2ccc(Cl)cc2)=C2CN3CCN(c4ccc(C(=O)NS(=O)(=O)c5cnc(OCC6(F)CCOCC6)c(Cl)c5)c(N5CCCOc6nc7[nH]ccc7cc65)c4)C[C@H]3COCCCO[C@@H]2C1 [Example 7, N-((5-chloro-6-((4-fluorotetrahydro-2H-pyran-4-yl)methoxy)pyridin-3-yl)sulfonyl)-4-((4aS,10aR)-14-(4-chlorophenyl)-12,12-dimethyl-1,2,4a,5,8,9,10a,11,13,15-decahydro-7H,12H-benzo[f]pyrazino[2,1-c][1,8]dioxa[4]azacycloundecin-3(4H)-yl)-2-(3,4-dihydro-2H-pyrrolo[3′,2′:5,6]pyrido[2,3-b][1,4]oxazepin-1(7H)-yl)benzamide]	> 661	0.0503
